Reference: patent publication US20250368648A1, “MULTI-CYCLIC IRAK AND FLT3 INHIBITING COMPOUNDS AND USES THEREOF” (CHILDREN'S HOSPITAL MEDICAL CENTER, priority 2022, published 2025)

What was measured:
Settings in all cases: no ATP
[1] = molecular target: T1, IRAK1 (Homo sapiens, UniProt P51617); assay: DiscoverX KINOMEscan competition binding, IRAK1
T1 construct: purchased RBC (Reaction Biology) HotSpot assay
Excerpt: (§1) Kinase binding data were obtained for various exemplary compounds prepared according to Examples 2-15 using the DiscoverX KINOMEscan® active site-directed competition binding site-directed assay protocol described below. […] As a result, the data report thermodynamic interaction affinities (Kd values), rather than IC50 values that are dependent on ATP concentrations. The assay uses a DNA-tagged version of the protein kinase, and an immobilized ligand bound to a solid support. Compounds that directly or indirectly prevent kinase binding to the immobilized ligand reduce the amount of kinase captured on the solid support, which is detected using an ultra-sensitive qPCR method. Affinity constants reported from the assay have been reported to be independent of the immobilized ligand used that is coupled to the solid support (See supplemental information in Fabian, M. A. et. al., (2005) Nat. […] Wodicka, L. […] Biol. 17, 1241-1249.) Kinase-tagged T7 phage strains were prepared in an E. coli host derived from the BL21 strain. E. coli were grown to log-phase and infected with T7 phage and incubated with shaking at 32° C. until lysis. […] Kds were determined using an 11-point 3-fold compound dilution series with three DMSO control points. […] The kinase concentration in the eluates was measured by qPCR. Binding constants (Kds) were calculated with a standard dose-response curve using the Hill equation. […]

[2] = molecular target: T2, FLT3 N841I (Homo sapiens, UniProt P36888, N841I); assay: DiscoverX KINOMEscan competition binding, FLT3 N841I
T2 construct: purchased DiscoverX (KINOMEscan); host or cells: E. coli (T7 phage) or HEK-293
T2 sequence (P36888 27-993 N841I): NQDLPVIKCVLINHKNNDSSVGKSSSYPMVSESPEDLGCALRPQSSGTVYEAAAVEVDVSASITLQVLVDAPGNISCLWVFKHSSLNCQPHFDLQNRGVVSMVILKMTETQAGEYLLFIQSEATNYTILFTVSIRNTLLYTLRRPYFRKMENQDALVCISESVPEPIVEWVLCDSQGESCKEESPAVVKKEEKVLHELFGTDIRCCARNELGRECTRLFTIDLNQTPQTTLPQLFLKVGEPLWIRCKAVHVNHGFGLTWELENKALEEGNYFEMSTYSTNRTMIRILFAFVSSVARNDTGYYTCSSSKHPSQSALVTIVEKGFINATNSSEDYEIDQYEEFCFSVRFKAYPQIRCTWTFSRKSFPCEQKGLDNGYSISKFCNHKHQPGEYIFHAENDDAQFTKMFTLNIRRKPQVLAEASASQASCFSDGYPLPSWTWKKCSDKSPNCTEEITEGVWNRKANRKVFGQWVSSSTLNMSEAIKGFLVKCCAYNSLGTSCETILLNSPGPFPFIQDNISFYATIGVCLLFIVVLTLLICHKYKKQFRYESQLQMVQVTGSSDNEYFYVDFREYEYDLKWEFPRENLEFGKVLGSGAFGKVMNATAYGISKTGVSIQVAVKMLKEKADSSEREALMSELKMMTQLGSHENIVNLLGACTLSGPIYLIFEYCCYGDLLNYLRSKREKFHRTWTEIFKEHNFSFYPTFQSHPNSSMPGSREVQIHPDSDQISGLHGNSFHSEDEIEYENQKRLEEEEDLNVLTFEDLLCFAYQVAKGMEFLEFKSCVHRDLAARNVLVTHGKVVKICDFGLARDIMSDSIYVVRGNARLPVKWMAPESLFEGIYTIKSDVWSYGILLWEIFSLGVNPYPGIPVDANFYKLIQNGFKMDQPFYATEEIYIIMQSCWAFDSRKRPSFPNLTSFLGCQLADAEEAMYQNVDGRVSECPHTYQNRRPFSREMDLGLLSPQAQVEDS
Excerpt: as §1

[3] = molecular target: T3, FLT3 ITD, D835V (Homo sapiens, UniProt P36888, D835V, form not given); assay: DiscoverX KINOMEscan competition binding, FLT3 ITD, D835V
T3 construct: fused on or other part: DNA tag for qPCR read-out (T7 phage fusion, or DNA-tagged kinase made in HEK-293 cells)
T3 sequence (P36888 1-993 D835V): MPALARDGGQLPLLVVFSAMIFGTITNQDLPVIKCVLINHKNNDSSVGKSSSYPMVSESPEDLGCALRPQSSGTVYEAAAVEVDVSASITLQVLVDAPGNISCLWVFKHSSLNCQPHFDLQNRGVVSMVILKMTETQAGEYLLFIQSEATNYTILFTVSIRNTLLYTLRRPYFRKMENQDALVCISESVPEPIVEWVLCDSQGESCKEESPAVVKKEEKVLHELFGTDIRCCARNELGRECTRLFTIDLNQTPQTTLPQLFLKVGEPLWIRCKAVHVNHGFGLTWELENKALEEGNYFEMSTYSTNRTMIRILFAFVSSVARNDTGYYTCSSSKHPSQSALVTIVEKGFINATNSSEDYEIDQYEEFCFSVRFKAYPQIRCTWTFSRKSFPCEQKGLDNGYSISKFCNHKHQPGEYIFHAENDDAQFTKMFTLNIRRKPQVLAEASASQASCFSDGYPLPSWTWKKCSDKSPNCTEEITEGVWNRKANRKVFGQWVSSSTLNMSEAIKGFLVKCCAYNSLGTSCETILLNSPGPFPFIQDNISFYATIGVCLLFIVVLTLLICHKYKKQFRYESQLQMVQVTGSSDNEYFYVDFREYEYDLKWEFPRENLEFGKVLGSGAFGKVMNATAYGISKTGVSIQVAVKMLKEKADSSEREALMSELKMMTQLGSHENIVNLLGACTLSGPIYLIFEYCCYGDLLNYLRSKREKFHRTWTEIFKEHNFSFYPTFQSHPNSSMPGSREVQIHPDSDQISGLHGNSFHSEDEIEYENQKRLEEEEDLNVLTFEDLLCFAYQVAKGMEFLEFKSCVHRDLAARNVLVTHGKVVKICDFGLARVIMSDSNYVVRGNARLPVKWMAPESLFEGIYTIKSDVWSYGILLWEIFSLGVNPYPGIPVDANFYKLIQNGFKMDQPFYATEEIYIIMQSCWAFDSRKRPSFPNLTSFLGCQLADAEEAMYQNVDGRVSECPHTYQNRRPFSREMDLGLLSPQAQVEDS
Excerpt: as §1

T1 sequence (P51617 whole entry): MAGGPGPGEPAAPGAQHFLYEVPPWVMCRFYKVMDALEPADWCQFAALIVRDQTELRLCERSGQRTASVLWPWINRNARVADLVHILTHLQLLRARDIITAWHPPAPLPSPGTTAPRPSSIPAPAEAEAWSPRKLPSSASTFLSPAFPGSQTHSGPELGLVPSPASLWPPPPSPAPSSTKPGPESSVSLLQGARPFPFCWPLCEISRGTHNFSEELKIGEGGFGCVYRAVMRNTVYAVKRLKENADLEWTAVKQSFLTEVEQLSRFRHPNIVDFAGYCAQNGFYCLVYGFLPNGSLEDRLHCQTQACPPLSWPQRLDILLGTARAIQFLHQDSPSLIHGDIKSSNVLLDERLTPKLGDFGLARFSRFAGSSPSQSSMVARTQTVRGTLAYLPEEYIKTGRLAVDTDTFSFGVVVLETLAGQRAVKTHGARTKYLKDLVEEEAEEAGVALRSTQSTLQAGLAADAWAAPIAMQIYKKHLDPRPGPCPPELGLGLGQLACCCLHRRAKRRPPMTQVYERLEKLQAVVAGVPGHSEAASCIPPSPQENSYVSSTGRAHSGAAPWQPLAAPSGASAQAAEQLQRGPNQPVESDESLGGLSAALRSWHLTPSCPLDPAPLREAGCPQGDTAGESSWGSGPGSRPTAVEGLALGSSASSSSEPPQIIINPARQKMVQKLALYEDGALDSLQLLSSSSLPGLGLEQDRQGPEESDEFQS

## COc1cc2ncc(-c3nc(N[C@H]4CNCC[C@@H]4F)c(F)cc3F)n2nc1C1CCC1 [Compound 15a, 6-(6-cyclobutyl-7-methoxyimidazo[1,2-b]pyridazin-3-yl)-3,5-difluoro-N-((3S,4S)-4-fluoropiperidin-3-yl)pyridin-2-amine]
[1]
  Kd: 1.4 nM
[2]
  Kd: 0.25 nM
[3]
  Kd: < 0.17 nM
